In patent US5563155A, “Individual stereosiomers of 7-[3-(aminoalkyl)-1-pyrrolidinyl]-quinolones and naphthyridones as antibacterial agents” (Warner-Lambert Company, priority 1995, dated 1996):
Converted amounts (≈) assume the structure as drawn. Counter-ions that a name gives are not always drawn. Like-named read-outs stand apart in the source and are kept apart here.

How the values were obtained:
[1] = test system: Ent. cloacae MA2646; experiment: in vitro antibacterial activity, microtitration dilution (MIC), Ent. cloacae MA2646; assay type: cell-based; details: Enterobacter cloacae, read-out: minimum inhibiting concentration (MIC)
Text: (§1) The in vitro antibacterial activity, is obtained by the microtitration dilution method as described in Heifetz, et al., Antimicr. Agents & Chemother., 6, 124 (1974), which is incorporated herein by reference.
(§2) By use of the above methods, the following minimum inhibiting concentration values (MICs in μg/mL), PD50 's in mg/kg, no effect phototoxicity dose in mg/kg and the cytotoxicity IC50 in μg/mL were obtained for representative enantiomers of the invention and compounds of the prior art as shown in the table.

[2] = test system: Pseud. aeruginosa UI-18; experiment: in vitro antibacterial activity, microtitration dilution (MIC), Pseud. aeruginosa UI-18; assay type: cell-based; details: Pseudomonas aeruginosa, UI18, read-out: minimum inhibiting concentration (MIC)
Text: as §1, §2

[3] = test system: Strep. faecalis MGH-2; experiment: in vitro antibacterial activity, microtitration dilution (MIC), Strep. faecalis MGH-2; assay type: cell-based; details: Enterococcus faecalis, MGH2, read-out: minimum inhibiting concentration (MIC)
Text: as §1, §2

[4] = test system: Strep. pheumoniae SV-1; experiment: in vitro antibacterial activity, microtitration dilution (MIC), Strep. pneumoniae SV-1; assay type: cell-based; details: Streptococcus pneumoniae, SV1, read-out: minimum inhibiting concentration (MIC)
Text: as §1, §2

[5] = test system: Strep. pyogenes C-203; experiment: median protective dose in mice given lethal systemic infections, Strep. pyogenes C-203; assay type: in vivo; details: Streptococcus pyogenes, single dose at time of challenge, read-out: median protective dose (PD50)
Experimental: (§3) The in vivo activity is obtained when the compounds are tested according to the procedure of Miller, et al (Proc. Soc. Exp. Biol. Med. 57, 261, 1944). The median protective dose (PD50) was determined in mice given lethal systemic infections. Single doses of compound were given at time of challenge.
as §2
(§4) The in vivo data as PD50 s are reported below the line of MICs for the same compound.

[6] = test system: Prot. rettgeri M 1771; experiment: in vitro antibacterial activity, microtitration dilution (MIC), Prot. rettgeri M 1771; assay type: cell-based; details: Providencia rettgeri, M1771, read-out: minimum inhibiting concentration (MIC)
Text: as §1, §2

[7] = test system: Klebs. pneumoniae MGH-2; experiment: in vitro antibacterial activity, microtitration dilution (MIC), Klebs. pneumoniae MGH-2; assay type: cell-based; details: Klebsiella pneumoniae, MGH2, read-out: minimum inhibiting concentration (MIC)
Text: as §1, §2

[8] = test system: Staph. aureus UC-76; experiment: in vitro antibacterial activity, microtitration dilution (MIC), Staph. aureus UC-76; assay type: cell-based; details: Staphylococcus aureus, UC76, read-out: minimum inhibiting concentration (MIC)
Text: as §1, §2

[9] = test system: Esch. coli Vogel; experiment: in vitro antibacterial activity, microtitration dilution (MIC), Esch. coli Vogel; assay type: cell-based; details: Escherichia coli, read-out: minimum inhibiting concentration (MIC)
Text: as §1, §2

[10] = test system: Staph. aureus H 228; experiment: in vitro antibacterial activity, microtitration dilution (MIC), Staph. aureus H 228; assay type: cell-based; details: Staphylococcus aureus, H228, read-out: minimum inhibiting concentration (MIC)
Text: as §1, §2

[11] = test system: Strep. pyogenes C-203; experiment: in vitro antibacterial activity, microtitration dilution (MIC), Strep. pyogenes C-203; assay type: cell-based; details: Streptococcus pyogenes, C203, read-out: minimum inhibiting concentration (MIC)
Text: as §1, §2

[12] = cytotoxicity, hamster V-79 cells, colony reduction; assay type: cell-based; details: 3 hours treatment, colonies counted after 5 days, read-out: Cytotox (cytotoxicity IC50)
Experimental: The cytotoxicity data is obtained using hamster V-79 cells. The cells were suspended in tissue culture medium and grown overnight. Cells were treated with drug for 3 hours, washed free of drug and then replated, and the colonies counted after 5 days. The concentration of drug that reduced colones by 50% relative to control was recorded.
as §2

[13] = test system: Esch. coli Vogel; experiment: median protective dose in mice given lethal systemic infections, Esch. coli Vogel; assay type: in vivo; details: Escherichia coli, single dose at time of challenge, read-out: median protective dose (PD50)
Experimental: as §3, §2, §4

SMILES | MIC [1] [µg/mL] | MIC [2] [µg/mL] | MIC [3] [µg/mL] | MIC [4] [µg/mL] | ED50 ([5]; C203, PO) [mg/kg] | ED50 ([5]; C203, SC) [mg/kg] | MIC [6] [µg/mL] | MIC [7] [µg/mL] | MIC [8] [µg/mL] | MIC [9] [µg/mL] | MIC [10] [µg/mL] | MIC [11] [µg/mL] | CC50 at 3 h [12] [µg/mL] | ED50 ([13]; PO) [mg/kg] | ED50 ([13]; SC) [mg/kg]
C[C@@H](N)[C@@H]1CCN(c2nc3c(cc2F)c(=O)c(C(=O)O)cn3-c2ccc(F)cc2F)C1 [Example 48, 3R,1R-7-[3-(1-aminoethyl)-1-pyrrolidinyl]-1-(2,4-difluorophenyl)-6-fluoro-1,4-dihydro-1,8-naphthyridine-3-carboxylic acid] | 0.1 (≈ 0.231 µM) | 1.6 (≈ 3.7 µM) | 0.1 (≈ 0.231 µM) | 0.05 (≈ 0.116 µM) | 9 | 3 | 0.4 (≈ 0.925 µM) | 0.2 (≈ 0.463 µM) | 0.025 (≈ 0.0578 µM) | 0.1 (≈ 0.231 µM) | 0.1 (≈ 0.231 µM) | 0.05 (≈ 0.116 µM) | – | – | –
CN[C@@H](C)[C@@H]1CCN(c2nc3c(cc2F)c(=O)c(C(=O)O)cn3C2CC2)C1 [Example 21, 3R,1S-1-cyclopropyl-6-fluoro-7-[3-(1-N-methylaminoethyl)-1-pyrrolidinyl]-1,4-dihydro-4-oxo-1,8-naphthyridine-3-carboxylic acid] | 0.1 (≈ 0.267 µM) | 1.6 (≈ 4.27 µM) | 0.05 (≈ 0.134 µM) | 0.013 (≈ 0.0347 µM) | 2 | 2 | 0.4 (≈ 1.07 µM) | 0.2 (≈ 0.534 µM) | 0.0013 (≈ 0.00347 µM) | 0.1 (≈ 0.267 µM) | 0.05 (≈ 0.134 µM) | 0.025 (≈ 0.0668 µM) | 130 (≈ 347 µM) | 1 | 0.5
CCN[C@H](C)[C@H]1CCN(c2nc3c(cc2F)c(=O)c(C(=O)O)cn3C2CC2)C1 [Example 79, 3S,1R-1-cyclopropyl-7-[3-[1-(ethylamino)ethyl]-1-pyrrolidinyl]-6-fluoro-1,4-dihydro-4-oxo-1,8-naphthyridine-3-carboxylic acid] | 0.1 (≈ 0.257 µM) | 1.6 (≈ 4.12 µM) | 0.05 (≈ 0.129 µM) | 0.025 (≈ 0.0644 µM) | 2 | 2 | 0.8 (≈ 2.06 µM) | 0.2 (≈ 0.515 µM) | 0.025 (≈ 0.0644 µM) | 0.1 (≈ 0.257 µM) | 0.1 (≈ 0.257 µM) | 0.05 (≈ 0.129 µM) | – | 2 | 1
CN[C@@H](C)[C@@H]1CCN(c2nc3c(cc2F)c(=O)c(C(=O)O)cn3-c2ccc(F)cc2F)C1 [Example 64, 3R,1S-1-(2,4-difluorophenyl)-6-fluoro-1,4-dihydro-7-[3-[1-(methylamino)ethyl]-1-pyrrolidinyl]-4-oxo-1,8-naphthyridine-3-carboxylic acid, monohydrochloride] | 0.8 | 3.1 | 0.2 | 0.025 | 4 | 2 | 1.6 | 0.8 | 0.025 | 0.4 | 0.1 | 0.05 | 310 | 5 | 2
CN[C@@H](C)[C@@H]1CCN(c2cc3c(c(C)c2F)c(=O)c(C(=O)O)cn3C2CC2)C1 [Example 67, 3R,1S-1-cyclopropyl-6-fluoro-1,4-dihydro-5-methyl-7-[3-[1-(methylamino)ethyl]-1-pyrrolidinyl]-4-oxo-3-quinolinecarboxylic acid, monohydrochloride] | 0.4 | 3.1 | 0.1 | 0.013 | 29 | 3 | 1.6 | 0.8 | 0.013 | – | 0.05 | 0.025 | – | – | –
CCN[C@@H](C)[C@@H]1CCN(c2c(F)c(N)c3c(=O)c(C(=O)O)cn(C4CC4)c3c2F)C1 [Example 53, 3R,1S-5-amino-1-cyclopropyl-7-[3-(1-N-ethylaminoethyl)-1-pyrrolidinyl]-6,8-difluoro-1,4-dihydro-4-oxo-3-quinolinecarboxylic acid] | 0.025 (≈ 0.0595 µM) | 0.8 (≈ 1.9 µM) | 0.013 (≈ 0.0309 µM) | ≤ 0.003 | 0.3 | 0.3 | 0.1 (≈ 0.238 µM) | 0.05 (≈ 0.119 µM) | ≤ 0.003 | 0.025 (≈ 0.0595 µM) | ≤ 0.003 | ≤ 0.003 | – | 1.6 | 0.8
Cc1c(F)c(N2CC[C@@H]([C@H](C)N)C2)cc2c1c(=O)c(C(=O)O)cn2-c1ccc(F)cc1F [Example 65, 3R,1S-7-[3-(1-aminoethyl)-1-pyrrolidinyl]-1-(2,4-difluorophenyl)-6-fluoro-1,4-dihydro-5-methyl-4-oxo-3-quinolinecarboxylic acid, monohydrochloride] | 0.1 | 0.8 | 0.025 | 0.003 | 5 | 0.6 | 0.4 | 0.2 | 0.006 | 0.1 | 0.013 | 0.003 | 10 | – | –
CN[C@H](C)[C@H]1CCN(c2c(F)cc3c(=O)c(C(=O)O)cn(C4CC4)c3c2OC)C1 [Example 38, 3S,1R-1-cyclopropyl-6-fluoro-7-[3-(1-N-methylaminoethyl)-1-pyrrolidinyl]-8-methoxy-1,4-dihydro-4-oxo-3-quinolinecarboxy acid] | 0.2 (≈ 0.496 µM) | 3.1 (≈ 7.68 µM) | 0.05 (≈ 0.124 µM) | 0.025 (≈ 0.062 µM) | 6 | 1 | 0.8 (≈ 1.98 µM) | 0.4 (≈ 0.991 µM) | 0.013 (≈ 0.0322 µM) | 0.2 (≈ 0.496 µM) | 0.05 (≈ 0.124 µM) | 0.025 (≈ 0.062 µM) | 130 (≈ 322 µM) | – | –
CCOc1c(N2CC[C@@H]([C@H](C)NC)C2)c(F)cc2c(=O)c(C(=O)O)cn(C3CC3)c12 [Example 57, 3R,1S-1-cyclopropyl-8-ethoxy-6-fluoro-1,4-dihydro-7-[3-(1-N-methylaminoethyl)-1-pyrrolidinyl]-4-oxo-3-quinolinecarboxylic acid] | 0.4 (≈ 0.958 µM) | 3.1 (≈ 7.43 µM) | 0.05 (≈ 0.12 µM) | 0.025 (≈ 0.0599 µM) | – | – | 0.8 (≈ 1.92 µM) | 0.4 (≈ 0.958 µM) | 0.013 (≈ 0.0311 µM) | 0.4 (≈ 0.958 µM) | 0.025 (≈ 0.0599 µM) | 0.025 (≈ 0.0599 µM) | 220 (≈ 527 µM) | – | –
CN[C@H](C)[C@@H]1CCN(c2nc3c(cc2F)c(=O)c(C(=O)O)cn3C2CC2)C1 [Example 22, 3R,1R-1-cyclopropyl-6-fluoro-7-[3-(1-N-methylaminoethyl)-1-pyrrolidinyl]-1,4-dihydro-4-oxo-1,8-naphthyridine-3-carboxylic acid] | 0.1 (≈ 0.267 µM) | 1.6 (≈ 4.27 µM) | 0.025 (≈ 0.0668 µM) | 0.05 (≈ 0.134 µM) | 8 | 5 | 0.4 (≈ 1.07 µM) | 0.2 (≈ 0.534 µM) | 0.05 (≈ 0.134 µM) | 0.1 (≈ 0.267 µM) | 0.1 (≈ 0.267 µM) | 0.05 (≈ 0.134 µM) | 88 (≈ 235 µM) | 4.6 | 1.2
CCN[C@@H](C)[C@@H]1CCN(c2nc3c(cc2F)c(=O)c(C(=O)O)cn3C2CC2)C1 [Example 78, 3R,1S-1-cyclopropyl-7-[3-[1-(ethylamino)ethyl]-1-pyrrolidinyl]-6-fluoro-1,4-dihydro-4-oxo-1,8-naphthyridine-3-carboxylic acid] | 0.4 (≈ 1.03 µM) | 1.6 (≈ 4.12 µM) | 0.05 (≈ 0.129 µM) | 0.025 (≈ 0.0644 µM) | 6 | 4 | 1.6 (≈ 4.12 µM) | 0.2 (≈ 0.515 µM) | 0.025 (≈ 0.0644 µM) | 0.1 (≈ 0.257 µM) | 0.05 (≈ 0.129 µM) | 0.05 (≈ 0.129 µM) | – | – | –
C[C@@H]([C@H]1CCN(c2nc3c(cc2F)c(=O)c(C(=O)O)cn3C2CC2)C1)N(C)C [Example 70, 3S,1S-1-cyclopropyl-7-[3-[1-(dimethylamino)ethyl]-1-pyrrolidinyl]-6-fluoro-1,4-dihydro-4-oxo-1,8-naphthyridine-3-carboxylic acid] | 0.4 (≈ 1.03 µM) | 12.5 (≈ 32.2 µM) | 0.8 (≈ 2.06 µM) | 0.2 (≈ 0.515 µM) | – | – | 3.1 (≈ 7.98 µM) | 0.8 (≈ 2.06 µM) | 0.2 (≈ 0.515 µM) | 0.4 (≈ 1.03 µM) | 0.4 (≈ 1.03 µM) | 0.4 (≈ 1.03 µM) | – | – | –
